Measurements from article PMC6148246, “HS-1371, a novel kinase inhibitor of RIP3-mediated necroptosis” (Experimental & Molecular Medicine, 2018).

What was measured:
HT-29 cells = assay: TRAIL-induced necroptosis in HT-29 cells (immunoblot, MTT); assay type: cell-based
Experimental: HT-29 cells expressing RIP3 shRNA, MLKL shRNA, or non-silencing control were analyzed by western blotting (upper panel), and these cells were treated with TSZ (6 h for immunoblotting, 24 h for cell death assay). Cell lysates were analyzed by immunoblotting (middle panel), and cell viability was analyzed by MTT assay (bottom panel). The results are presented as means ± SEM. *P < 0.05, **P < 0.01, ***P < 0.001. b HS-1371 protected cells not only from TNF-induced necroptosis but also from TRAIL-induced necroptosis. HT-29 cells were pretreated with indicated concentrations of HS-1371 and then treated with TRAIL + Smac + zVAD (6 h for immunoblotting, 24 h for cell death assay). Cell lysates were analyzed by immunoblotting, and cell viability was analyzed by MTT assay or phase-contrast microscopy. The results are presented as means ± SEM. *P < 0.05, **P < 0.01, ***P < 0.001. c, d HS-1371 had no effect on TNF-induced apoptosis. HT-29 cells were pretreated with HS-1371 (5 μM) for 2 h and then treated with TC or TS (TNF + either cycloheximide or SMAC mimetic, hereafter referred to as TC or TS, 6 h for immunoblotting, 24 h (TC) or 36 h (TS) for cell death assay). Cell lysates were analyzed by immunoblotting, and cell viability was analyzed by MTT assay (TC) or CellTiter-Glo Luminescent Cell Viability Assay Kit (TS). The results are presented as means ± SEM. *P < 0.05, **P < 0.01, ***P < 0.001 […]

NF-κB pathway = assay: TNF- or LPS-induced NF-κB signaling (immunoblot); assay type: cell-based
Experimental: Supplementary Figure 1. Identification of HS-1371 as a novel RIP3 kinase inhibitor.
Detailed interaction patterns in the region surrounded by DFG motif and αC helix of RIP3.
Hydrogen bonds are indicated with dotted lines.
Supplementary Figure 2. The effect of HS-1371 was compared with GSK’872.
(a) Overexpression of RIP3 could induce S227 phosphorylation without stimuli. HEK293T cells were transiently transfected with Flag-hRIP3, and cells were treated with or without DAB for incubation periods. After cells were harvested, cell lysates were analyzed by […]
kinase inhibitor. HT-29 cells were treated with HS -1371 or GSK’872 indicated concentrations for 9 h, and cell lysates were analyzed by immunoblotting.
(c) Cytotoxicity of HS-1371 was compared with GSK’872. HT-29 cells were treated with 2 kinase inhibitors for 24 h and cell viability was analyzed by MTT assay.
(d) Inhibition of MLKL phosphorylation by HS-1371 was compared with other two RIP3 kinases inhibitors, DAB (5 μM) and GSK’872 (5 μM). […] Cell lysates were analyzed by […]
HeLa, L929, and MEF cells were pretreated with HS-1371 (5 μM) for 2 h, and treated with TNF (30 ng/mL) for indicated time points. Cell lysates were analyzed by immunoblotting. […]
(a) RAW264.7 cells were treated with LPS (1 μg/mL) for indicated time points and cell lysates were analyzed by immunoblotting. […]

SMILES: Cc1ccc(Oc2ccnc3cc(-c4cnn(C5CCNCC5)c4)ccc23)cc1 [HS-1371, 7-(1-(Piperidin-4-yl)-1H-pyrazol-4-yl)-4-(p-tolyloxy)quinoline]
- TRAIL-induced S227 phosphorylation of RIP3 and RIP3-mediated phosphorylation of MLKL (HT-29 cells; HT-29, TRAIL + Smac mimetic + zVAD 6 h, dose-dependent): decreased
- TRAIL-induced cytotoxicity (HT-29 cells; HT-29, TRAIL + Smac mimetic + zVAD 24 h, MTT): reduction in cytotoxicity
- TNF-induced NF-κB signaling (NF-κB pathway; HT-29, HeLa(RIP3), L929, MEF, 5 μM pretreated 2 h, TNF 30 ng/mL): did not affect
- LPS-induced induction of the NF-κB pathway (NF-κB pathway; data not shown): not altered
